In assay [1] the target is T1, hSOS1 mediated nucleotide exchange on hKRASG12C (Homo sapiens, UniProt Q07889).
T1 sequence (Q07889 564-1049): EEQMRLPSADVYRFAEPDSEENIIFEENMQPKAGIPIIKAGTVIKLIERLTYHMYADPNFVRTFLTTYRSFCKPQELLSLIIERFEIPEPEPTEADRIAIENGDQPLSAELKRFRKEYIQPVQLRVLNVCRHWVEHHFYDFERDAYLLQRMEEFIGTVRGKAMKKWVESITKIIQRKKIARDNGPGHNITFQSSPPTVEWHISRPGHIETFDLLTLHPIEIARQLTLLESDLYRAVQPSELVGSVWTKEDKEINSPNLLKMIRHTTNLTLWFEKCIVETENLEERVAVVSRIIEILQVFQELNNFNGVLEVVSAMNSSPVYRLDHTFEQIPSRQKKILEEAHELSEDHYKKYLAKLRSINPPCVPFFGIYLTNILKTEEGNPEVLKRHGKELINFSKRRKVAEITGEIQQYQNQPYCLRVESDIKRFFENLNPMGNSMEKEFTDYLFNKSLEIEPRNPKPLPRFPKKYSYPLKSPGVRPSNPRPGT
Nature of the assay: biochemical.
Protocol: Example-127: Guanine Nucleotide Exchange Assay (GNEA)
GNEA assay was conducted to evaluate the effects of compounds on the nucleotide exchange on hKRASG12C mediated by hSOS1. Inhibitory effect of compounds on HIS-hSOS1, 564-1049aa mediated GTP loading onto GST-hKRASG12C, 1-169aa both expressed and purified in-house was assessed using HTRF detection technology in biochemical assay. Compounds were pre-incubated with hSOS1 working solution containing 10-50 nM hSOS1 and 200 nM EDA-GTP-DY-647P1 (Custom manufactured, Jena Biosciences) per well of a 384 well plate (Perkin Elmer, Cat #6007290) for 10 min at 20° C. in the assay buffer containing 10 mM HEPES, pH 7.4, 150 mM NaCl, 5 mM MgCl2, 1 mM DTT, 0.05% BSA fraction V and 0.0025% Igepal. Reaction was initiated by adding working solution of hKRASG12C containing 25-125 nM hKRASG12C and MAb Anti-GST-Tb (#61GSTTLA, Cisbio BioAssays) in assay buffer. Total assay volume was 15 μL. Reaction was continued for 30-60 min at 20° C. HTRF signal was recorded in PHERAStar microplate reader. Ratio of signal obtained at 665 nm and 620 nm was used to compute the percent inhibition of compound as follows.
Where, Positive control=hSOS1+EDA-GTP-DY-647P1+hKRASG12C+MAb Anti-GST-Tb Negative control=EDA-GTP-DY-647P1+hKRASG12C+MAb Anti-GST-Tb

The target in assay [2] is T2, hSOS1 and hKRASG12C (Homo sapiens, UniProt Q07889).
T2 sequence (Q07889 564-1049): T1 sequence (Q07889 564-1049)
Briefly: biochemical.
Protocol: Interaction assay was conducted to evaluate the ability of the compounds to disrupt the protein-protein interactions between hSOS1 and hKRASG12C. Inhibitory effect of compounds on GST-hSOS1, 564-1049aa expressed and purified in-house and HIS-hKRASG12C (R06-32DH, SignalChem) interaction was assessed using HTRF detection technology in biochemical assay. Compounds were pre-incubated with 10-50 nM working solution of hSOS1 per well of a 384 well plate (Perkin Elmer, Cat #6007290) for 10 min at 20° C. in the assay buffer containing 5 mM HEPES, pH 7.4, 150 mM NaCl, 10 mM EDTA, 1 mM DTT, 0.05% BSA fraction V and 0.0025% Igepal. Reaction was initiated by adding 100-300 nM working solution of hKRASG12C in assay buffer. Total assay volume was 15 μL. Reaction was continued for 30-60 min at 20° C. Then detection solution containing MAb Anti-GST-d2 (#61GSTDLA, Cisbio BioAssays) and MAb Anti-HIS-Tb (#61HISTLA, Cisbio BioAssays), all prepared in HTRF detection buffer (#61DB10RDF, Cisbio BioAssays) was added and further incubated for 30-60 min at 20° C. HTRF signal was recorded in PHERAStar microplate reader. Ratio of signal obtained at 665 nm and 620 nm was used to compute the percent inhibition of compound utilizing the following formula:
Positive control=hSOS1+hKRASG12C+MAb Anti-GST-d2+Mab Anti-HIS-Tb Negative control=hKRASG12C+MAb Anti-GST-d2+MAb Anti-HIS-Tb

For assay [3], the system named is pERK in DLD1 cells. Briefly: ERK phosphorylation assay after EGF stimulation. In kind it is cell-based. Conditions: Homo sapiens, DLD-1, compound 2 h, 200 ng/ml hEGF 5 minutes, alphascreen pERK, read-out: ERK phosphorylation inhibition IC50. Summed up: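 DLD1 cells pretreated 2 h with compound, then stimulated 5 minutes with 200 ng/ml hEGF. Lysates assayed for ERK1/2 p-T202/Y204 by AlphaScreen SureFire, read after 2 h at 25-28° C.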

Our source for the IC50 values is patent US12435066B2, “Substituted tricyclic compounds” (LUPIN LIMITED, priority 2019, dated 2025).

Each structure is given as a SMILES string.

As usually defined, the IC50 is the point on the concentration scale where inhibition reaches its midpoint.

Turning to `Cc1nc(N[C@H](C)c2cc(N)cc(C(F)(F)F)c2)c2cc(N3CC4(COC4)C3)c3c(c2n1)CC(C)(C)O3` [Compound 114, (R)—N-(1-(3-amino-5-(trifluoromethyl)phenyl)ethyl)-2,8,8-trimethyl-6-(2-oxa-6-azaspiro[3.3]heptan-6-yl)-8,9-dihydrofuro[2,3-h]quinazolin-4-amine], the figures for the half-inhibitory concentration (IC50) in assay [1], in assay [2] and in assay [3] were 0.031 to 0.07 µM, 0.001 to 0.01 µM and 0.001 to 0.2 µM, respectively.

As to `Cc1nc(N[C@H](C)c2cccc(C(F)(F)C(C)(C)O)c2F)c2cc(N3CCC(O)(CO)CC3)c3c(c2n1)CCC3` [Compound 85, (R)-1-(4-((1-(3-(1,1-difluoro-2-hydroxy-2-methylpropyl)-2-fluorophenyl)ethyl)amino)-2-methyl-8,9-dihydro-7H-cyclopenta[h]quinazolin-6-yl)-4-(hydroxymethyl) piperidin-4-ol], the concentration for half-maximal inhibition (IC50) is 0.001 to 0.03 µM in assay [1], 0.001 to 0.01 µM in assay [2] and 0.001 to 0.2 µM in assay [3].

As to `COCC1(O)CCN(c2cc3c(N[C@H](C)c4cc(N)cc(C(F)(F)F)c4)nc(C)nc3c3c2CCC3)CC1` [Compound 47, (R)-1-(4-((1-(3-amino-5-(trifluoromethyl)phenyl)ethyl)amino)-2-methyl-8,9-dihydro-7H-cyclopenta[h]quinazolin-6-yl)-4-(methoxymethyl)piperidin-4-ol], the 50% inhibitory concentration (IC50) in assay [1] lay in the range of 0.001 to 0.03 µM; in assay [2] it was 0.001 to 0.01 µM; in assay [3], 0.001 to 0.2 µM.

Regarding `Cc1nc(N[C@H](C)c2cc(N)cc(C(F)(F)F)c2)c2cc(N3CCC(C(C)(C)O)CC3)c3c(c2n1)CCC3` [Compound 51, (R)-2-(1-(4-((1-(3-amino-5-(trifluoromethyl)phenyl)ethyl)amino)-2-methyl-8,9-dihydro-7H-cyclopenta[h]quinazolin-6-yl)piperidin-4-yl)propan-2-ol], the IC50 in assay [1] was 0.001 to 0.03 µM; in assay [2], 0.001 to 0.01 µM; in assay [3] it was 0.001 to 0.2 µM.

On to `COCC1(O)CCN(c2cc3c(N[C@H](C)c4cccc(C(F)(F)C(C)(C)O)c4F)nc(C)nc3c3c2CCC3)CC1` [Compound 63, (R)-1-(4-((1-(3-(1,1-difluoro-2-hydroxy-2-methylpropyl)-2-fluorophenyl)ethyl)amino)-2-methyl-8,9-dihydro-7H-cyclopenta[h]quinazolin-6-yl)-4-(methoxymethyl)piperidin-4-ol], for which the IC50 fell in the range of 0.001 to 0.03 µM in assay [1], 0.001 to 0.01 µM in assay [2] and 0.001 to 0.2 µM in assay [3].

As to `Cc1nc(N[C@H](C)c2cc(N)cc(C(F)(F)F)c2)c2cc(N3CCC(O)CC3)c3c(c2n1)CCC3` [Compound 48, (R)-1-(4-((1-(3-amino-5-(trifluoromethyl)phenyl)ethyl)amino)-2-methyl-8,9-dihydro-7H-cyclopenta[h]quinazolin-6-yl)piperidin-4-ol], the concentration for half-maximal inhibition (IC50) in assay [1] is 0.001 to 0.03 µM; in assay [2] it was 0.001 to 0.01 µM; in assay [3], 0.001 to 0.2 µM.

Turning to `Cc1nc(N[C@H](C)c2cccc(C(F)(F)C(C)O)c2F)c2cc(N3CC4(COC4)C3)c3c(c2n1)CCC3` (single isomer, unassigned) [Compound 73a], the IC50 in assay [1] fell in the range of 0.001 to 0.03 µM; in assay [2] it was 0.001 to 0.01 µM; in assay [3] it was 0.001 to 0.2 µM.

Regarding `Cc1nc(N[C@H](C)c2cc(N)cc(C(F)(F)F)c2)c2cc(N3CCOCC3)c3c(c2n1)CCC3` [Compound 2, (R)—N-(1-(3-amino-5-(trifluoromethyl)phenyl)ethyl)-2-methyl-6-morpholino-8,9-dihydro-7H-cyclopenta[h]quinazolin-4-amine], the half-maximal inhibitory concentration (IC50) in assay [1] was in the range of 0.001 to 0.03 µM; in assay [2], 0.001 to 0.01 µM; in assay [3] it was 0.001 to 0.2 µM.

As to `COCC1(O)CCN(c2cc3c(N[C@H](C)c4cccc(C(F)(F)[C@@H](C)O)c4F)nc(C)nc3c3c2CCC3)CC1` (single isomer, unassigned) [Compound 72b], the IC50 in assay [1] was 0.001 to 0.03 µM; in assay [2], 0.001 to 0.01 µM; in assay [3], 0.001 to 0.2 µM.

Consider `Cc1nc(N[C@H](C)c2cccc(C(F)(F)C(C)(C)O)c2F)c2cc(N3CCC(CO)CC3)c3c(c2n1)CCC3` [Compound 64, (R)-1,1-difluoro-1-(2-fluoro-3-(1-((6-(4-(hydroxymethyl)piperidin-1-yl)-2-methyl-8,9-dihydro-7H-cyclopenta[h]quinazolin-4-yl)amino)ethyl)phenyl)-2-methylpropan-2-ol], for which the IC50 in assay [1] was in the range of 0.001 to 0.03 µM; in assay [2] it was 0.001 to 0.01 µM; in assay [3], 0.001 to 0.2 µM.

Consider `COCC1(O)CCN(c2cc3c(N[C@H](C)c4cccc(C(F)(F)CCO)c4F)nc(C)nc3c3c2CCC3)CC1` [Compound 71, (R)-1-(4-((1-(3-(1,1-difluoro-3-hydroxypropyl)-2-fluorophenyl)ethyl)amino)-2-methyl-8,9-dihydro-7H-cyclopenta[h]quinazolin-6-yl)-4-(methoxymethyl) piperidin-4-ol], for which the half-maximal inhibitory concentration (IC50) in assay [1] was in the range of 0.001 to 0.03 µM; in assay [2], 0.001 to 0.01 µM; in assay [3], 0.001 to 0.2 µM.

As to `Cc1nc(N[C@H](C)c2cccc(C(F)(F)C(C)(C)O)c2F)c2cc(N3CC[C@@](C)(O)C3)c3c(c2n1)CCC3` (single isomer, unassigned) [Compound 61a], the figures for the half-maximal inhibitory concentration (IC50) in assay [1], in assay [2] and in assay [3] were 0.001 to 0.03 µM, 0.001 to 0.01 µM and 0.001 to 0.2 µM, respectively.

In the case of `Cc1nc(N[C@H](C)c2cccc(C(F)(F)C(C)(C)O)c2F)c2cc(N3CC4(COC4)C3)c3c(c2n1)CCC3` [Compound 10, (R)-1,1-difluoro-1-(2-fluoro-3-(1-((2-methyl-6-(2-oxa-6-azaspiro[3.3]heptan-6-yl)-8,9-dihydro-7H-cyclopenta[h]quinazolin-4-yl)amino)ethyl)phenyl)-2-methylpropan-2-ol], the IC50 in assay [1] lay in the range of 0.001 to 0.03 µM; in assay [2], 0.001 to 0.01 µM; in assay [3], 0.001 to 0.2 µM.

Take `Cc1nc(N[C@H](C)c2cccc(C(F)(F)CO)c2F)c2cc(N3CC[C@@H](O)C3)c3c(c2n1)CCC3` [Compound 30, (R)-1-(4-(((R)-1-(3-(1,1-difluoro-2-hydroxyethyl)-2-fluorophenyl)ethyl)amino)-2-methyl-8,9-dihydro-7H-cyclopenta[h]quinazolin-6-yl)pyrrolidin-3-ol]: the IC50 fell in the range of 0.001 to 0.03 µM in assay [1], 0.001 to 0.01 µM in assay [2] and 0.001 to 0.2 µM in assay [3].

Consider `Cc1nc(N[C@H](C)c2cc(N)cc(C(F)(F)F)c2)c2cc(N3CCNC(=O)C3)c3c(c2n1)CCC3` [Compound 53, (R)-4-(4-((1-(3-amino-5-(trifluoromethyl)phenyl)ethyl)amino)-2-methyl-8,9-dihydro-7H-cyclopenta[h]quinazolin-6-yl)piperazin-2-one], for which the IC50 in assay [1] lay in the range of 0.001 to 0.03 µM; in assay [2], 0.001 to 0.01 µM; in assay [3], 0.001 to 0.2 µM.

`COCC1(O)CCN(c2cc3c(N[C@H](C)c4cccc(C(F)(F)COC)c4F)nc(C)nc3c3c2CCC3)CC1` [Compound 69, (R)-1-(4-((1-(3-(1,1-difluoro-2-methoxyethyl)-2-fluorophenyl)ethyl)amino)-2-methyl-8,9-dihydro-7H-cyclopenta[h]quinazolin-6-yl)-4-(methoxymethyl) piperidin-4-ol]: the half-maximal inhibitory concentration (IC50) in assay [1] was 0.001 to 0.03 µM; in assay [2], 0.001 to 0.01 µM; in assay [3], 0.001 to 0.2 µM.

Consider `Cc1nc(N[C@H](C)c2cc(N)cc(C(F)(F)F)c2)c2cc(N3CC4(COC4)C3)c3c(c2n1)CCC3` [Compound 33, (R)—N-(1-(3-amino-5-(trifluoromethyl)phenyl)ethyl)-2-methyl-6-(2-oxa-6-azaspiro[3.3]heptan-6-yl)-8,9-dihydro-7H-cyclopenta[h]quinazolin-4-amine], for which the IC50 in assay [1] is 0.001 to 0.03 µM; in assay [2], 0.001 to 0.01 µM; in assay [3], 0.001 to 0.2 µM.

Take `Cc1nc(N[C@H](C)c2cc(N)cc(C(F)(F)F)c2)c2cc(N3CC4(CC(O)C4)C3)c3c(c2n1)CCC3` [Compound 52, (R)-2-(4-((1-(3-amino-5-(trifluoromethyl)phenyl)ethyl)amino)-2-methyl-8,9-dihydro-7H-cyclopenta[h]quinazolin-6-yl)-2-azaspiro[3.3]heptan-6-ol]: the results for the IC50 in assay [1], in assay [2] and in assay [3] were 0.001 to 0.03 µM, 0.001 to 0.01 µM and 0.001 to 0.2 µM, respectively.

`Cc1nc(N[C@H](C)c2cc(N)cc(C(F)(F)F)c2)c2cc(N3CCC(CO)CC3)c3c(c2n1)CCC3` [Compound 49, (R)-(1-(4-((1-(3-amino-5-(trifluoromethyl)phenyl)ethyl)amino)-2-methyl-8,9-dihydro-7H-cyclopenta[h]quinazolin-6-yl)piperidin-4-yl)methanol]: the IC50 in assay [1] was in the range of 0.001 to 0.03 µM; in assay [2], 0.001 to 0.01 µM; in assay [3], 0.001 to 0.2 µM.

As for `Cc1nc(N[C@H](C)c2cc(N)cc(C(F)(F)F)c2)c2cc(N3CCC(C)(O)CC3)c3c(c2n1)CCC3` [Compound 50, (R)-1-(4-((1-(3-amino-5-(trifluoromethyl)phenyl)ethyl)amino)-2-methyl-8,9-dihydro-7H-cyclopenta[h]quinazolin-6-yl)-4-methylpiperidin-4-ol], the results for the IC50 in assay [1], in assay [2] and in assay [3] were 0.001 to 0.03 µM, 0.001 to 0.01 µM and 0.001 to 0.2 µM, respectively.
